Consider 6 compounds from patent publication US10583146B2, “Pharmaceutical compositions for glucocorticoid replacement therapy” (Shire ViroPharma Incorporated, priority 2004, dated 2020).

For data set [1] the following is noted: equivalent dose for systemic glucocorticoid therapy; cited from earlier work.
Data set [2] can be described thus: Equivalent doses of glucocorticoids (hydrocortisone equivalents) for systemic glucocorticoid therapy. Particulars: per 1 mg of the glucocorticoid. How it is done: The term “hydrocortisone equivalents” is used herein to define the amount in mg of a specific glucocorticoid that corresponds to 1 mg of hydrocortisone for the purpose of systemic glucocorticoid therapy as generally understood by medical practitioners. The term is based on the fact that the individual glucocorticoids have different potencies and in order to achieve a desired therapeutic effect different doses of the individual glucocorticoids are required. Equivalent doses of the glucocorticoids can be calculated based on the following table.

Data set [3] in a line: In vivo plasma cortisol profile in healthy volunteers with suppressed endogenous glucocorticoid secretion. More on the design: species or system human. How it is done: The in vivo experiments reported herein were carried out on healthy volunteers. At 6 pm and 11 pm the day before administration of the test composition, the endogenous cortisol secretion was suppressed by oral administration of 2 mg of betamethasone.
The test composition was administered to healthy volunteers. The volunteers were in fasted state and were not allowed to take any food until noon. In the case a tablet is administered, it is ingested together with 200 ml of water. The test composition is administered between 8 am and 10 am on the day following the suppression of endogenous glucocorticoid secretion.
In vivo plasma profiles in humans, N=1 per composition
Dexamethasone suppression test, fasting state, otherwise as described in the paragraph denoted “Method”.
Two films were prepared essentially similar to Example 20—composition A. Film A contains 10 mg of hydrocortisone and film B contains 11.2 mg of hydrocortisone acetate.
The hydrocortisone compositions were tested in two human subjects after labial administration. The subjects had their endogenous glucocorticoid secretion suppressed by synthetic glucocorticoids. The plasma concentration of cortisol was monitored during 360 min after the labial administration, and the serum concentration time profiles from these two different subjects are shown in FIGS. 10 and 11.
The compositions were tested after oral administration to two human subjects (FIG. 12).

Consider `C[C@@H]1C[C@H]2[C@@H]3C[C@H](F)C4=CC(=O)C=C[C@]4(C)[C@H]3[C@@H](O)C[C@]2(C)[C@@]1(O)C(=O)CO` [Paramethasone], for which, in data set [1], the “Equivalent amount” value is recorded as 2 mg. Also, in data set [2], the “Hydrocortisone equivalent (1 mg of the glucocorticoid corresponds to the listed amount in mg of hydrocortisone)” value (“Hydrocortisone equivalent” below) amounted to 10 mg.

`C[C@]12C=CC(=O)C=C1CC[C@@H]1[C@@H]2[C@@H](O)C[C@@]2(C)[C@H]1CC[C@]2(O)C(=O)CO` [Prednisolone]: the “Equivalent amount” value in data set [1] is given as 5 mg. For the same compound, the “Hydrocortisone equivalent” value in data set [2] was found to be 4 mg.

For `CC(=O)OCC(=O)[C@@]1(O)CC[C@H]2[C@@H]3CCC4=CC(=O)CC[C@]4(C)[C@H]3[C@@H](O)C[C@@]21C` [hydrocortisone acetate], the “suitability for immediate release judged from in vivo plasma profiles” value in data set [3] (Example 18 thin-layer films, humans, N=1 per composition, fasting state, FIGS. 5-7) is recorded as “does not seem to be suitable for an immediate release composition”.

For `C[C@]12C=CC(=O)C=C1CC[C@H]1[C@@H]3C[C@@H](O)[C@](O)(C(=O)CO)[C@@]3(C)C[C@H](O)[C@@]12F` [Triamcinolone], the “Equivalent amount” value in data set [1] is on record as 4 mg. Moreover, the “Hydrocortisone equivalent” value in data set [2] amounted to 5 mg.

Take `CC(=O)OCC(=O)[C@@]1(O)CC[C@H]2[C@@H]3CCC4=CC(=O)CC[C@]4(C)[C@H]3C(=O)C[C@@]21C` [Cortisone acetate]: in data set [1], the “Equivalent amount” value was 25 mg. Further, in data set [2], the “Hydrocortisone equivalent” value was 0.8 mg.

In the case of `C[C@]12CCC(=O)C=C1CC[C@@H]1[C@@H]2[C@@H](O)C[C@@]2(C)[C@H]1CC[C@]2(O)C(=O)CO` [Hydrocortisone], the “time at which the first measured plasma concentration of cortisol was attained” value in data set [3] (Example 20 thin-layer film, 10 mg hydrocortisone, labial administration, two human subjects, FIGS. 10 and 11) is 10 to 15 min. Also, in data set [3] (Example 20 thin-layer film, labial administration, two human subjects), the “rate and extent of mucosal uptake” value is “high”. Further, in data set [1], the “Equivalent amount” value was 20 mg. The “Hydrocortisone equivalent” value in data set [2] amounted to 1 mg.
